Like-named read-outs stand apart in the source and are kept apart here.
Assays:
HeLa WT-β-III cells = experiment: Antiproliferative SRB assay, βIII-tubulin expressing HeLa; assay type: cell-based, human; conditions: for IC50: Homo sapiens, HeLa, Table 49, βIII tubulin expressing line, 48 hr, SRB assay; for Rr (β-III): relative resistance: IC50 of expressing line divided by IC50 of parental HeLa
Experimental: (§1) Cell Culture. Various representative cancer and other cell lines were sourced and grown as described previously [Mooberry, S. L., et al., Mol. Pharm. 72, 132-140 (2007)]. MDA-MB-435 (human melanoma cancer cells), and MDA-MB-231 (human breast cancer cells) were grown in IMEM Richter's Medium (Life Technologies, Grand Island, N.Y.) with 10% FBS (Hyclone, Logan, Utah) and 25 μg/mL gentamicin sulfate (Life Technologies). A-10 (embryonic rat vascular smooth muscle cells) and HeLa (human cervical cancer cells), SK-OV-3 (human ovarian cancer cells) and SK-OV-3-MDR-1-M6/6 (a clone of the SK-OV-3 that was generated from SK-OV-3 cells by adenovirus-mediated expression of MDR1) were grown in Basal Medium Eagle (BME, Sigma-Aldrich, St. Louis, Mo.) containing Earle's salts, 50 μg/ml gentamicin sulfate, and 10% FBS. HeLa cells (a single-cell clone derived from transduction of HeLa cells with wild-type (WT) βIII-tubulin) were grown in Dulbecco's Modified Eagle's Medium (DMEM, Life Technologies) containing 50 μg/mL gentamicin sulfate and 10% FBS.
(§2) Antiproliferative Effects. The pyrrole compounds were evaluated for their antiproliferative effects in a panel of cancer cell lines. Cells were plated into 96-well plates at predetermined densities and allowed to attach and proliferate for 24 hr, and then the compounds were added. After a 48 hr exposure to the compounds, the cells were fixed with trichloroacetic acid and cellular protein was determined using the sulforhodamine B (SRB) assay (Skehan et al., J. Natl. Cancer Inst. 82, 1107-12, (1990); Boyd and Paull Drug Devel. Res. 34, 91-109, (1995)). Concentration response curves were constructed, and the IC50 (the concentration required to inhibit proliferation by 50%) values were determined from the linear portions of the log concentration-response curves as described previously [Tinley, T. L., et al., Cancer Res. 63, 3211-3220, (2003)] as shown in Table 48.
(§3) First, drug resistance mediated by the expression of βIII tubulin was evaluated in an isogenic HeLa cell line pair. Expression of the βIII tubulin isotype is associated with clinical drug resistance to the taxanes in ovarian cancer, non small-cell lung cancer and breast cancer [Galmarini, C. M., et al., Clin. Cancer Res. 14, 4511-4516 (2008)]. Secondly, drug resistance mediated by the expression of the drug efflux pump protein, Pgp, was evaluated in the isogenic SK-OV-3 cell line pair. The expression of Pgp can lead to lower intracellular drug concentrations and diminished cytotoxic effects both in vitro and in vivo. All tubulin-binding anticancer drugs used currently in the clinic, except cabazitaxel, are substrates for Pgp, thus limiting their utility in drug resistant tumors [Penson, R. T., et al., Gynecol. Oncol. 93, 98-106 (2004)]. Differences in sensitivity between the parent and transformed cell line, indicative of resistance, was determined by calculating relative resistance (Rr) values in the two pairs of isogenic cell lines (dividing the IC50 of the expressing cell line by the IC50 of the parental cell line).

SK-OV-3-MDR-1-6/6 cells = experiment: Antiproliferative SRB assay, Pgp expressing SK-OV-3; assay type: cell-based, human; conditions: for IC50: Homo sapiens, SK-OV-3, Table 49, Pgp expressing line, 48 hr, SRB assay; for Rr (Pgp): relative resistance: IC50 of expressing line divided by IC50 of parental SK-OV-3
Experimental: as §1, §2
as §3, with “The expression of Pgp can lead to lower intracellular drug concentrations and diminished cytotoxic effects both in vitro and in vivo.” left out

[1] = tested on: SK-OV-3 (human ovarian cancer cells); experiment: Antiproliferative SRB assay, SK-OV-3; assay type: cell-based; conditions: Homo sapiens
Experimental: as §1, §2
as §3, with “The expression of Pgp can lead to lower intracellular drug concentrations and diminished cytotoxic effects both in vitro and in vivo.” left out

[2] = biological target: T1, purified porcine brain tubulin (Sus scrofa, UniProt P02554); experiment: Inhibition of polymerization of purified tubulin (absorbance at 340 nm); assay type: biochemical; conditions: compound at 2 μM
T1 construct: of Purified Porcine Brain Tubulin; from tissue; host or cells: porcine brain

[3] = tested on: HeLa (human cervical cancer cells); experiment: Antiproliferative SRB assay, HeLa; assay type: cell-based; conditions: Homo sapiens, HeLa
Experimental: as §1, §2, §3

[4] = tested on: MDA-MB-435 (human melanoma cancer cells); experiment: Antiproliferative SRB assay, MDA-MB-435; assay type: cell-based; conditions: Homo sapiens, MDA-MB-435, read-out: MDA-MB-435 Anti-Proliferative Activity, IC50
Experimental: as §1, §2

A-10 cells = experiment: Cellular microtubule loss by indirect immunofluorescence; assay type: cell-based, rat; conditions: Rattus norvegicus, A10; Table 50; concentration causing approximately 50% loss of interphase microtubules; read-out: EC50 Values (nM) for Microtubule Loss in A-10 cells
Experimental: The effects of representative compounds on cellular microtubules were evaluated in A-10 (embryonic rat vascular smooth muscle cell line) cells using indirect immunofluorescence techniques as previously described (Tinley et al., Cancer Res. 63, 3211-20 (2003)). Cells were visualized using a Nikon Eclipse 80i fluorescence microscope and NIS Elements software. Changes in both interphase and mitotic microtubules were noted and photographed. The EC50 values, the concentration that causes approximately 50% loss of interphase microtubules was determined by evaluating a range of concentrations of each compound and the percent cellular microtubule depolymerization that was observed visually at each concentration was noted.
Microtubules were visualized by indirect immunofluorescence using a β-tubulin antibody, and the DNA was visualized with DAPI. A representative concentration response curve for NT-7-16 is also shown in FIG. 1 that was used to calculate its corresponding EC50 for microtubule loss. Concentration response curves for microtubule loss were plotted using data from at least three experiments for each compound and the corresponding EC50 values for microtubule loss are presented in Table 50.

[5] = biological target: colchicine binding site on tubulin (Sus scrofa, UniProt P02554); experiment: Colchicine site binding, fluorometric assay
[6] = tested on: variety of cancer cell lines; conditions: against cancer cell lines; cited from earlier work
HeLa cells = experiment: Cell cycle distribution by flow cytometry; assay type: cell-based, human; conditions: HeLa cells treated for 18 hr; FIG. 3: 25 nM NT-7-16, 12.5 nM paclitaxel
Experimental: The effects of NT-7-16 on cell cycle distribution were determined. […] The cells were stained with Kirshan's reagent (Kirshan, Cell Biol. 66, 188-93 (1975)), and cell cycle distribution was measured using a Millipore Muse flow cytometer.
The effects of NT-7-16 on cell cycle distribution were determined. […] The cells were stained with Kirshan's reagent (Kirshan Cell Biol. 66, 188-93. (1975)), and cell cycle distribution was measured using a Millipore Muse flow cytometer.

[7] = SK-OV-3, Table 48, 48 hr exposure, read-out: SK-OV-3 Anti-Proliferative Activity, IC50
[8] = SK-OV-3, Table 49, parental line, 48 hr, read-out: SK-OV-3 IC50
[9] = Table 48, 48 hr exposure, read-out: HeLa Anti-Proliferative Activity, IC50
[10] = Table 49, parental line, 48 hr, read-out: HeLa IC50
[11] = Table 48, 48 hr exposure, SRB assay

T1 sequence (P02554 whole entry): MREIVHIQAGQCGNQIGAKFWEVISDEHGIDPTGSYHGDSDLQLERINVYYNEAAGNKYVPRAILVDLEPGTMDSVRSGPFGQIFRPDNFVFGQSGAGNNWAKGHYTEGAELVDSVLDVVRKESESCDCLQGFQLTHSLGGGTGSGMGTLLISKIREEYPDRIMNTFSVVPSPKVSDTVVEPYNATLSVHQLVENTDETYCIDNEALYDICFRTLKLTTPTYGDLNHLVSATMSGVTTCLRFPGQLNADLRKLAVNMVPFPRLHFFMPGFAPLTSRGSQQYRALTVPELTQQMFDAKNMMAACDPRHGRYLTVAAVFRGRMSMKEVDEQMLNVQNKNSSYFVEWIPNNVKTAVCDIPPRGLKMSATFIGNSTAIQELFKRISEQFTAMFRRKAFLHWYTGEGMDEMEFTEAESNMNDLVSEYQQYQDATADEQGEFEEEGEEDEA
T1 sequence (P02550 whole entry partner): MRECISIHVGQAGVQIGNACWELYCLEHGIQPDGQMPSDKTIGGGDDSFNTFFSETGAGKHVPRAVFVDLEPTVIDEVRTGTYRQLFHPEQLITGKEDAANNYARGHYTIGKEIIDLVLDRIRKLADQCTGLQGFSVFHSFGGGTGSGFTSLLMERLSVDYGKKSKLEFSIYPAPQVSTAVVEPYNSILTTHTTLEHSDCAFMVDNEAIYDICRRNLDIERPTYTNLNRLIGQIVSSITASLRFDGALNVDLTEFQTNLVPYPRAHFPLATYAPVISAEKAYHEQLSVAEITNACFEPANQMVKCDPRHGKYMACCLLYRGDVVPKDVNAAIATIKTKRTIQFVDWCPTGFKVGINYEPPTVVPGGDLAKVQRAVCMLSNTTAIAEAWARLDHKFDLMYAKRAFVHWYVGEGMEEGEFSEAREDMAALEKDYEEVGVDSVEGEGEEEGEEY
Chain of colchicine binding site on tubulin (P02554 whole entry): as the sequence (P02554 whole entry) above
Chain of colchicine binding site on tubulin (P02550 whole entry partner): as the sequence (P02550 whole entry partner) above

| Compound | IC50 (HeLa WT-β-III cells) | Rr (β-III) (HeLa WT-β-III cells) | IC50 (SK-OV-3-MDR-1-6/6 cells) | Rr (Pgp) (SK-OV-3-MDR-1-6/6 cells) | IC50 [1, 7] | IC50 [1, 8] | inhibition at 2 µM [2] | IC50 [3, 9] | IC50 [3, 10] | IC50 [4, 11] | IC50 ([4]; Table 52) | EC50 (A-10 cells) | melting point | effect on colchicine binding ([5]; at 100 μM) | effect on colchicine binding (FIG. 9) ([5]; result in words) | fold less active than JG-03-14 in vitro [6] | cell cycle distribution (HeLa cells) |
| --- | --- | --- | --- | --- | --- | --- | --- | --- | --- | --- | --- | --- | --- | --- | --- | --- | --- |
| CCOC(=O)c1[nH]c(C(F)F)c(-c2ccc(OC)c(OC)c2OC)c1Br [Example 6, 3-Bromo-4-(2,3,4-trimethoxyphenyl)-5-(difluoromethinyl)-1H-pyrrole 2-carboxylic acid ethyl ester] | 184 ± 30.3 nM | 1.3 | 174 ± 12.5 nM | 0.8 | 227 ± 14 nM | 227 ± 14 nM | 55% | 142 ± 11 nM | 142 ± 11 nM | 113 ± 6 nM | 113 ± 6 nM | 315 nM | 149 to 151 °C | – | – | – | – |
| CC[C@]1(O)C[C@@H]2CN(CCc3c([nH]c4ccccc34)[C@@](C(=O)OC)(c3cc4c(cc3OC)N(C)[C@H]3[C@@](O)(C(=O)OC)[C@H](OC(C)=O)[C@]5(CC)C=CCN6CC[C@]43[C@@H]65)C2)C1 [vinblastine, reference compound] | – | – | – | – | – | – | – | – | – | – | – | – | – | no effect | does not | – | – |
| CCOC(=O)c1[nH]c(Br)c(-c2cc(OC)c(OC)c(OC)c2)c1Br [4-[(3,4,5-trimethoxy)-phenyl]-3,5-dibromopyrrole 2-carboxylic acid ethyl ester] | – | – | – | – | – | – | – | – | – | – | – | – | – | – | – | more than 350 fold | – |
| CC(=O)O[C@H]1C(=O)[C@@]2(C)[C@H]([C@H](OC(=O)c3ccccc3)[C@]3(O)C[C@H](OC(=O)[C@H](O)[C@@H](NC(=O)c4ccccc4)c4ccccc4)C(C)=C1C3(C)C)[C@]1(OC(C)=O)CO[C@@H]1C[C@@H]2O [paclitaxel, reference compound] | 21.1 ± 1.8 nM | 14.1 | 2330 nM | – | – | – | – | 1.5 ± 0.05 nM | 1.5 ± 0.05 nM | 2 ± 0.1 nM | – | – | – | – | – | – | initiated mitotic accumulation |
| CCOC(=O)c1[nH]c(C#N)c(-c2ccc(OC)c(OC)c2OC)c1Br [Example 11, 3-Bromo-4-(2,3,4-trimethoxyphenyl)-5-cyano-1H-pyrrole 2-carboxylic acid ethyl ester] | 26.1 ± 0.8 nM | 1.3 | 42.2 ± 5.5 nM | 1.6 | 26.2 ± 2.1 nM | 26.2 ± 2.1 nM | 78% | 20.6 ± 1.9 nM | 20.6 ± 1.9 nM | 19.6 ± 1.8 nM | 19.6 ± 1.8 nM | 88.1 nM | 173 to 176 °C | – | – | – | – |
| CCOC(=O)c1[nH]c(C=O)c(-c2ccc(OC)c(OC)c2OC)c1Br [Example 2, 3-Bromo-4-(2,3,4-trimethoxyphenyl)-5-formyl-1H-pyrrole 2-carboxylic acid ethyl ester] | 104 ± 6.5 nM | 3.3 | 82.2 ± 9.4 nM | 1.1 | 72 ± 9.1 nM | 72 ± 9.1 nM | 68% | 31.7 ± 4.8 nM | 31.7 ± 4.8 nM | 57 ± 5 nM | 57 ± 5 nM | 66 nM | 158 to 160 °C | – | – | – | – |
| CCOC(=O)c1[nH]c(C=NOC)c(-c2ccc(OC)c(OC)c2OC)c1Br (mixture of isomers) [Example 12, Cis/Trans-3-Bromo-4-(2,3,4-trimethoxyphenyl)-5-(O-methyl-oximino)-1H-pyrrole-2-carboxylic acid ethyl ester] | 12.5 ± 0.2 nM | 1.1 | 17.5 ± 1.2 nM | 1.3 | 13.8 ± 0.9 nM | 13.8 ± 0.9 nM | 99% | 11.9 ± 1.3 nM | 11.9 ± 1.3 nM | 7.6 ± 0.5 nM | 7.6 ± 0.5 nM | 22 nM | 125 to 128 °C | – | – | – | – |
